Reference: patent US9034336B2, “Immunomodulators and immunomodulator conjugates” (Regents of the University of Minnesota, priority 2011, dated 2015)
“Also recorded” adds a separate entry of the source.

Key:
[1] = molecular target: T1, human TLR8 (Homo sapiens, UniProt Q9NR97); assay: TLR7/8-NF-κB reporter assay (HEK-TLR8, SEAP); type: cell-based; conditions: HEK-TLR8 cells, 24 hrs, read-out: EC50 of TLR8 (mean ± SD)
T1 construct: host or cells: HEK (HEK293) cells with NF-kB-responsive SEAP reporter
T1 sequence (Q9NR97 27-1041): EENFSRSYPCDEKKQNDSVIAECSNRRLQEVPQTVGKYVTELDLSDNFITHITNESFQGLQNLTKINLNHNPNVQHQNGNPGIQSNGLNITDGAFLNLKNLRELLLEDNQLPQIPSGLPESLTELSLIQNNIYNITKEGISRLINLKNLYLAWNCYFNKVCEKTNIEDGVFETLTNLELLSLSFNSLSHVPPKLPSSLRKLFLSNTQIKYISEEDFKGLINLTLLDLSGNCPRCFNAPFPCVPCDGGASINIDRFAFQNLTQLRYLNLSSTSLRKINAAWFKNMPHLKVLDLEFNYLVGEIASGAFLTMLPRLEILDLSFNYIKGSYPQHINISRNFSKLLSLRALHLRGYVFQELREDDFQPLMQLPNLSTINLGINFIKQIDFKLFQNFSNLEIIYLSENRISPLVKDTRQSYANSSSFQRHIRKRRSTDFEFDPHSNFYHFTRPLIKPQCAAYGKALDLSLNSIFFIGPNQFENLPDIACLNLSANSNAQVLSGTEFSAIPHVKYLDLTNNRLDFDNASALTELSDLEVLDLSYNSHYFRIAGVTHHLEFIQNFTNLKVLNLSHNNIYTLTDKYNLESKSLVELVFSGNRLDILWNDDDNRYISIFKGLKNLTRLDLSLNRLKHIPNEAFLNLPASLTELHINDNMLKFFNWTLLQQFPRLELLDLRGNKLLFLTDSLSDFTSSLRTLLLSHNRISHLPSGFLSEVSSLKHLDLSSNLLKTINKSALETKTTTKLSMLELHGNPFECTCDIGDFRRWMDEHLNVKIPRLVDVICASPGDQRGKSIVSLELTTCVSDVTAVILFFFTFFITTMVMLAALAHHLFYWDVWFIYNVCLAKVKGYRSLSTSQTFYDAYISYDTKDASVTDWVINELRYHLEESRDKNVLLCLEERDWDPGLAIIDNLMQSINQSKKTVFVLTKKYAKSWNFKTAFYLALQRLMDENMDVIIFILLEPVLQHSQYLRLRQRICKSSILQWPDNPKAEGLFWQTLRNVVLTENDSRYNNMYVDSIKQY
Experimental: Human embryonic kidney (HEK) cells that were stably transfected with human TLR7 or TLR8 and an NF-κB—responsive secreted embryonic alkaline phosphatase (SEAP) gene (HEK-TLR7/8) were purchased from InvivoGen (San Diego, Calif.). The procedure used to measure TLR7 or TLR8 agonist activity was conducted as described by Hood et al. (Hood J. D, et al., Human Vaccines, 2010, 6, 4, 322-335). Briefly, HEK-TLR7/8 cells were stimulated with 3.3 or 30 μM of compound in a 96-well plate in DMEM containing 10% FBS and 0.01% Normocin (InvivoGen) for 24 hrs. Twenty microliters of the supernatant from each well was incubated with Quanti-blue substrate solution (InvivoGen) at 37° C. for 1 hour and absorbance was read at 650 nm using a Synergy plate reader (Biotek, Winooski, Vt.).

[2] = test system: human monocyte-derived dendritic cells (MoDC); assay: Human MoDC inflammatory cytokines by cytometric bead assay; type: cell-based
Experimental: 1. Dendritic cells were generated from peripheral blood monocytes as described (Brossart P, et al. Blood. 1998; 92: 4238-4247). In brief, CD14 positive monocytes were from a healthy human peripheral blood mononuclear cells (PBMC) obtained via isolation with Lymphocyte Separation Medium (Mediatech, Inc, Manassas, Va.) and after purification with CD14 microbeads from Miltenyi Biotec Inc (Aubun, Calif.). The CD14 positive monocytes (>95% CD14) were cultured into immature monocyte-derived dendritic cells (MoDC) by further 6 day culture with GM-CSF (100 ng/ml) and IL-4 (100 ng/ml)(R&D, MN). 2. 0.1 million of MoDC were plated into 96-well plate and stimulated for 48 hours with 5 different concentration of following TLRs: 412, 420, 421, 414 and 415 at concentration of 0, 0.325, 1.3, 5.2 and 20.8 nmol/ml in triplicate. In other experiments (FIGS. 34 and 35), fresh PBMC (not DC) were used as the responder cells to the indicated compounds and cytokines levels were measured by bead array according to the manufacture's protocol (BD biosciences).
The supernatant were harvested 48 hours after stimulation with TLRs. Inflammatory cytokines level was identified with CBA, following the producer's instruction (BD, San Jose, Calif.)

[3] = test system: BMDC or splenocytes; assay: Inflammatory cytokine detection in BMDC and splenocytes (CBA); type: cell-based, C57BL/6j mice; conditions: Example 6, FIG. 23; compared to resiquimod and imiquimod
Experimental: (§1) Bone marrow cells were harvested from femurs and tibias of C57BL/6j. After red blood cells were removed with ammonium-chloride-potassium buffer, the bone marrow cells were cultured with complete RPMI-1640 medium and 2 ng/ml of granulocyte macrophage colony-stimulating factor (GM-CFS) at 5% CO2 and 37° C. for 6 days. Medium was changed twice during 6 days culture. Single cell suspension of splenocytes was prepared in the same way as one in IL-6 detection assay. BMDC or splenocytes were stimulated in triplicate with Imiquimod-derived new TLR ligand compounds, 412, 420, 421, 422, IMQ (414) and Resquimod (415) at various concentration of 20.8 nmol/ml, 5.2 nmol/ml, 1.3 nmol/ml, 0.325 nmol/ml and 0 nmol/ml. 48 hours after stimulation, the supernatants were harvested and frozen at −80° C. until detection. A cytometric bead array (CBA, BD Bioscience) was performed on inflammatory cytokines following the manufacture's instruction. 500 events were collected. Analysis of all samples was performed on FACScanto-II machine with software and further analyzed with Flowjo. Standard curves and negative control (PBS) were included for each cytokine to calculate the cytokine concentration in the samples.

[4] = test system: mouse splenocytes; assay: Inflammatory cytokine detection in splenocytes (CBA); type: cell-based, C57BL/6j mice
Experimental: as §1

CCCCc1nc2c(N)nc3cc(C(=O)OC)ccc3c2n1CC(C)(C)O [Compound 420, 4-Amino-2-butyl-1-(2-hydroxy-2-methylpropyl)-7-methoxycarbonyl-1H-imidazo[4,5-c]quinoline]
EC50 [1]: 49.6 ± 1.02 µM
IL-1β induction / secretion ([2]; human MoDC (FIG. 11)): induction of IL-1β; also recorded: the only drug tested that caused appreciable IL-1b secretion
production of inflammatory cytokines ([2]; human MoDC, supernatant 48 hours after stimulation): higher production of “inflammatory cytokines”, compared to imiquimod (but less stronger than Resquimod)
elaboration of proinflammatory TNFa [3]: significantly greater elaboration of proinflammatory TNFa compared to the other drugs
IL-10 (anti-inflammatory) secretion [4]: less IL-10 (anti-inflammatory) secretion compared to resiquimod
